Data taken from BindingDB's records for doi:10.1021/jm030398k (National Institute of Diabetes and Digestive and Kidney …, 2004).
pIC50: −log10 of the molar value.

Biological target: tyramine oxidase (microbial)
Test: Compound was evaluated for inhibition of Microbial tyramine oxidase; irreversible

Question: How did the pIC50 turn out when `NNC(=O)C1(c2ccccc2)CC1F` (stereo unspecified) [2-Fluoro-1-phenyl-cyclopropanecarboxylic acid hydrazide] was run?
Answer: 4.70
